The assay is described as follows: Inhibition of Mycobacterium tuberculosis H37Rv full-length PTPB expressed in Escherichia coli […] using 6,8-difluoromethylumbelliferyl phosphate as substrate assessed as inhibition of substrate hydrolysis.
On to `CC(=O)c1cc(C)c(O)c(Cc2c(O)cc(-c3ccc(O)c(O)c3)oc2=O)c1O`, for which the IC50 – broadly, the concentration needed to halve the response being measured – was found to be 160 nM.

For `CC(=O)c1cc(C)c(O)c(CC2=C(C)C(=O)C(O)=C(C)C2=O)c1O`, the IC50 is 1370 nM.

As for SODIUM ORTHOVANAD, the IC50 was found to be 82 nM.

(Values after ChEMBL document CHEMBL3232773, “Peniphenones A-D from the mangrove fungus Penicillium dipodomyicola HN4-3A as inhibitors of Mycobacterium tuberculosis phosphatase MptpB” (J Nat Prod, 2014).)
